Experimental data published in US11298391B1, “Topical skin health improvement compositions and administrations thereof” (Lorenol Laboratories, Inc., priority 2017, dated 2022).

Test system: PGE-2
Experiment: PGE-2 increase on UVR exposure: control, Retinol and Skin Therapeutic Composition 5 (FIG. 2)
Assay type: in vivo
Details: in the presence of UVR
From the text: FIG. 2 illustrates an implementation of the reduction and/or inhibition of skin inflammation as a result of topical application of Skin Therapeutic Composition 5.
A night serum may be prepare including Skin Therapeutic Composition 5. FIG. 2 illustrates an implementation of the reduction and/or inhibition of skin inflammation as a result of topical application of Skin Therapeutic Composition 5. […] Skin Therapeutic 5 encourages collagen growth and inhibits the overproduction of PGE-2 when exposed to UVR.

In the case of `CC1=C(/C=C/C(C)=C/C=C/C(C)=C/CO)C(C)(C)CCC1` [Retinol], the PGE-2 change is reported as “increase in PGE-2”.
